In patent publication US20240316038A1, “APOL1 INHIBITORS AND METHODS OF USE” (Maze Therapeutics, Inc., priority 2021, published 2024) one finds AC50 and EC50 data, which are given here for ten molecules.

Experiment [1] concerns the target T1, APOL1 G2 (Homo sapiens, UniProt O14791, DEL388-389).
T1 construct: expressed in transfected cells; host or cells: HEK293 T-REx clonal lines: HEK T-REx/GCaMP6f/APOL1 G2 K6.3 in A1, HEK293/T-REx APOL1 G2/clone #2 in A2
T1 sequence (O14791 with tags, fused parts or gaps DEL388-389): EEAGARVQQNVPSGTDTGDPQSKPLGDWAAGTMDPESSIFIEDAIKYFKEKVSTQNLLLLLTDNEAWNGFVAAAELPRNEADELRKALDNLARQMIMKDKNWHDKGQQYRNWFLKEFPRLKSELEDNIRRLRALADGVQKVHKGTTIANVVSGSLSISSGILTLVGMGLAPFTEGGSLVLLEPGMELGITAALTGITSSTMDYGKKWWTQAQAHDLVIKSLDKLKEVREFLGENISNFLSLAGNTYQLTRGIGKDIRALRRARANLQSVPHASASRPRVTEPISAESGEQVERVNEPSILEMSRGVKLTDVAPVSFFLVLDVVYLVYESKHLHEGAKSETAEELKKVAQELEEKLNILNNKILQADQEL
The experiment can be described thus: APOL1 calcium transport inhibition assay (GCaMP6f calcium influx, FLIPR) in HEK T-REx/GCaMP6f/APOL1 G2 K6.3 cells. The note with it: inhibition of APOL1-mediated calcium influx; geometric mean of at least 2 assay runs, † = single assay run (technical duplicate). The format is cell-based. In a few lines:
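HEK293 cells stably expressing GCaMP6f, APOL1 G2 induced 6 h with doxycycline (20 ng/mL added), then washed into Ca2+-free Tyrode's buffer pH 7.4. Compounds (8-point dose response) preincubated 10 min at room temperature, then Ca2+ injected to 5 mM final and influx read on FLIPR. AC50 reported as geometric mean of runs.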

The target in experiment [2] is T1, APOL1 G2. The experiment can be described thus: Rescue of HEK293 cell death caused by overexpression of APOL1 (CellTiter-Glo luminescence), HEK293/T-REx APOL1 G2/clone #2. The note with it: reversal of cell death caused by overexpression of APOL1; geometric mean of at least 2 assay runs, † = single assay run (technical duplicate). The class given is cell-based. The method, boiled down: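 HEK293/T-REx APOL1 G2 clone #2 cells, 5,000/well, induced with 6 ng/mL doxycycline and exposed to compound (8-point, 3-fold dilutions, 0.5% DMSO) for 17 h at 37 °C. Viability by CellTiter-Glo luminescence; EC50 for reversal of APOL1-induced death from a four-parameter logistic fit, geometric mean of ≥2 runs.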
(ATP-based viability assays read luminescence as a measure of living cells.)

In general, AC50 refers to the concentration at which the activity in the assay is half-maximal. One may read the EC50 as the concentration needed to bring the measured effect to its halfway point.

As for `CN(c1ccc(OC[C@@H](O)CN2CCC(c3cccc(Cl)c3)C2)cc1)S(C)(=O)=O` (single isomer, unassigned) [Compound 75, N-(4-((S)-3-((S) or (R)-3-(3-chlorophenyl)pyrro-lidin-1-yl)-2-hydroxypropoxy)phe-nyl)-N-methylmethanesulfon-amide], the AC50 on APOL1 G2 [1] is 558 nM. Further, the EC50 at APOL1 G2 [2] turned out to be 1460 nM.
The corresponding values for `CN(c1ccc(OC[C@@H](O)CN2CCC(c3cccc(Cl)c3)C2)cc1)S(C)(=O)=O` (single isomer, unassigned) [Compound 76, N-(4-((S)-3-((R) or (S)-3-(3-chlorophenyl)pyrro-lidin-1-yl)-2-hydroxypropoxy)phe-nyl)-N-methylmethanesulfon-amide] are 2830 nM and over 6280 nM.
In the case of `CN(c1ccc(OC[C@H](O)CN2CCC(c3cccc(Cl)c3)C2)cc1)S(C)(=O)=O` (single isomer, unassigned) [Compound 78, N-(4-((R)-3-((S) or (R)-3-(3-chlorophenyl)pyrro-lidin-1-yl)-2-hydroxypropoxy)phe-nyl)-N-methylmethanesulfon-amide], at APOL1 G2 [1], the half-maximal activity concentration (AC50) was determined as 7010 nM. In addition, on APOL1 G2 [2], the EC50 is over 30000 nM.
The matching figures for `CN(c1ccc(OC[C@H](O)CN2CCC(c3cccc(Cl)c3)C2)cc1)S(C)(=O)=O` (single isomer, unassigned) [Compound 79, N-(4-((R)-3-((R) or (S)-3-(3-chlorophenyl)pyrro-lidin-1-yl)-2-hydroxypropoxy)phe-nyl)-N-methylmethanesulfon-amide]: 1290 nM and over 13700 nM.
Turning to `CN(c1ccc(OC[C@@H](O)CN2CCOC(c3cccc(Cl)c3)C2)cc1)S(C)(=O)=O` (single isomer, unassigned) [Compound 81, N-(4-((S)-3-((S) or (R)-2-(3-chlorophenyl)morpho-lino)-2-hydroxypropoxy)phe-nyl)-N-methylmethanesulfon-amide], the AC50 on APOL1 G2 [1] is over 25000 nM. Moreover, the EC50 on APOL1 G2 [2] is over 30000 nM.
The matching figures for `CN(c1ccc(OC[C@@H](O)CN2CCOC(c3cccc(Cl)c3)C2)cc1)S(C)(=O)=O` (single isomer, unassigned) [Compound 82, N-(4-((S)-3-((R) or (S)-2-(3-chlorophenyl)morpho-lino)-2-hydroxypropoxy)phe-nyl)-N-methylmethanesulfon-amide]: 4350 nM and over 24300 nM.
For the molecule `CN(c1ccc(OC[C@H](O)CN2CCOC(c3cccc(Cl)c3)C2)cc1)S(C)(=O)=O` (single isomer, unassigned) [Compound 84, N-(4-((R)-3-((R) or (S)-2-(3-chlorophenyl)morpho-lino)-2-hydroxypropoxy)phe-nyl)-N-methylmethanesulfon-amide], the AC50 on APOL1 G2 [1] is over 25000 nM. In addition, the EC50 on APOL1 G2 [2] is over 30000 nM.
The matching figures for `CN(c1ccc(OC[C@H](O)CN2CCOC(c3cccc(Cl)c3)C2)cc1)S(C)(=O)=O` (single isomer, unassigned) [Compound 85, N-(4-((R)-3-((S) or (R)-2-(3-chlorophenyl)morpho-lino)-2-hydroxypropoxy)phe-nyl)-N-methylmethanesulfon-amide]: 8480 nM and over 18000 nM.
The matching figures for `CC(Cc1cccc(Cl)c1)NC[C@@H](O)COc1ccc(N(C)S(C)(=O)=O)cc1` (single isomer, unassigned) [Compound 88, N-(4-((R)-3-(((S) or (R)-1-(3-chlorophenyl)propan-2-yl)amino)-2-hydroxypropoxy)phe-nyl)-N-methylmethanesulfon-amide]: 338 nM and 698 nM.
The matching figures for `CC(Cc1cccc(Cl)c1)NC[C@@H](O)COc1ccc(N(C)S(C)(=O)=O)cc1` (single isomer, unassigned) [Compound 89, N-(4-((R)-3-(((R) or (S)-1-(3-chlorophenyl)propan-2-yl)amino)-2-hydroxypropoxy)phe-nyl)-N-methylmethanesulfon-amide]: 449 nM and 2020 nM.
